Values of other authors, collected in patent publication US12599598B2, “Osmotic dosage forms comprising deutetrabenazine and methods of use thereof” (Auspex Pharmaceuticals, Inc., priority 2020, dated 2026).

Conditions: in vivo

half-life of its active metabolites, relative to tetrabenazine: increased half-life
Structure (SMILES): [2H]C([2H])([2H])Oc1cc2c(cc1OC([2H])([2H])[2H])[C@H]1CC(=O)[C@H](CC(C)C)CN1CC2 [Deutetrabenazine, (RR,SS)-1,3,4,6,7,11b-hexahydro-9,10-di(methoxy-d3)-3-(2-methylpropyl)-2H-benzo[a]quinolizin-2-one]
